The record followed here is US20150087627A1, “COMBINATION OF KINASE INHIBITORS AND USES THEREOF” (Intellikine LLC, priority 2011, published 2015).

Broadly, the IC50 is the concentration needed to halve the response being measured.

SMILES strings stand for the structures.

Common to all, as to type: biochemical
Assay [1] deals with T1, PI3K α (p110α/p85α) (Homo sapiens, UniProt P42336).
T1 construct: purchased Upstate / Millipore Corporation
Description: PI 3-Kinase (human) HTRF assay, PI3K α. The following applies: read-out: PI3K α IC50. On the technique in general: TR-FRET usually uses a lanthanide donor and a delayed reading to cut background.

For assay [2], the target named is T2, PI3K β (p110β/p85α) (Homo sapiens, UniProt P42338).
T2 construct: purchased Upstate / Millipore Corporation
Description: PI 3-Kinase (human) HTRF assay, PI3K β. The note with it: read-out: PI3K β IC50.

Assay [3] concerns the target T3, PI3K γ (p110γ) (Homo sapiens, UniProt P48736).
T3 construct: purchased Upstate / Millipore Corporation
The assay can be described thus: PI 3-Kinase (human) HTRF assay, PI3K γ. The note with it: read-out: PI3K γ IC50.

The target in assay [4] is T4, PI3K δ (Homo sapiens, UniProt O00329).
T4 construct: purchased Upstate / Millipore Corporation
Description: PI 3-Kinase (human) HTRF assay, PI3K δ. The note with it: read-out: PI3K δ IC50.

T1 sequence (P42336 whole entry): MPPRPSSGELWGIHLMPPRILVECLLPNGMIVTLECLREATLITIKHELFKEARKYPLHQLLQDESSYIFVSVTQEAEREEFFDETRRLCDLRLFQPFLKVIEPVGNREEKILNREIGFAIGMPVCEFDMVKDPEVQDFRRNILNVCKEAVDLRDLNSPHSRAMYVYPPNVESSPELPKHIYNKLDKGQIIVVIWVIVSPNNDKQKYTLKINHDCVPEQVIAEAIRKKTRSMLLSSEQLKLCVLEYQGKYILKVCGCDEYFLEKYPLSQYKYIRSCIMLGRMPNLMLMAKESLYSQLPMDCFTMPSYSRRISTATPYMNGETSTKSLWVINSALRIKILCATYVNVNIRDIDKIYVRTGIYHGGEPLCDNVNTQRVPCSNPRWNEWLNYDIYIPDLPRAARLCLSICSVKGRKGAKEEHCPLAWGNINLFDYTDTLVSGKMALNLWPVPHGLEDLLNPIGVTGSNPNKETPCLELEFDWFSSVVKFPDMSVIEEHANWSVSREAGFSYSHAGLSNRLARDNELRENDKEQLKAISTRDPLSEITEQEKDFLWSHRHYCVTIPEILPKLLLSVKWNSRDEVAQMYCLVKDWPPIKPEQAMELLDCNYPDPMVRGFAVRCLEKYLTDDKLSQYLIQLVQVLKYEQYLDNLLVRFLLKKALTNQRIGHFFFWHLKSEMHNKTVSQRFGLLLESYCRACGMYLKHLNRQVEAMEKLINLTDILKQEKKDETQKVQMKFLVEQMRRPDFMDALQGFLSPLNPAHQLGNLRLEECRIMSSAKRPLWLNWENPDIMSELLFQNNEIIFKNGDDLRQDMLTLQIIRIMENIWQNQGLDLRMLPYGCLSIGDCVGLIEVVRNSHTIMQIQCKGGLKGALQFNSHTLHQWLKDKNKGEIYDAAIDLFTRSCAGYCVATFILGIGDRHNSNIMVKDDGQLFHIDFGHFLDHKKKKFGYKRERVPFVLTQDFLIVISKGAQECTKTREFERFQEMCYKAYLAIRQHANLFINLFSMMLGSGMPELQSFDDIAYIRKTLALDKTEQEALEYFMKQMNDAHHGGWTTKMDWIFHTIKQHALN
T1 sequence (P27986 whole entry partner): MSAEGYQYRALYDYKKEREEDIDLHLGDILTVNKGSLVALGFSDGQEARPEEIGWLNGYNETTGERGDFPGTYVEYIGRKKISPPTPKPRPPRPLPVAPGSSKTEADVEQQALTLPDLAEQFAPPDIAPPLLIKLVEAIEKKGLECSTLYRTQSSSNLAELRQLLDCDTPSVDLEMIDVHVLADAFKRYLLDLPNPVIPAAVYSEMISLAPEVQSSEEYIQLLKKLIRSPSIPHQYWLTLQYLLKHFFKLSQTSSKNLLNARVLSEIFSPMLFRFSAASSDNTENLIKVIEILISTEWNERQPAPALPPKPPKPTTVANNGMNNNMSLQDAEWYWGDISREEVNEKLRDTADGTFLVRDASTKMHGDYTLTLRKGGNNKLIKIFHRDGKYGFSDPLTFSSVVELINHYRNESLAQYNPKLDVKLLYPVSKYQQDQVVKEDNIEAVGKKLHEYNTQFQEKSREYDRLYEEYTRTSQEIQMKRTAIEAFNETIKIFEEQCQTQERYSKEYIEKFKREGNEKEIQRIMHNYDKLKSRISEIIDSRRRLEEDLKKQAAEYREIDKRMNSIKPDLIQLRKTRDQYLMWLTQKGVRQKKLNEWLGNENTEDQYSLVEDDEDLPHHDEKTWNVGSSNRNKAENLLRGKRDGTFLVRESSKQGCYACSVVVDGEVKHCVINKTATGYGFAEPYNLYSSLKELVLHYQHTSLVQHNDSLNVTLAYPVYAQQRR
T2 sequence (P42338 whole entry): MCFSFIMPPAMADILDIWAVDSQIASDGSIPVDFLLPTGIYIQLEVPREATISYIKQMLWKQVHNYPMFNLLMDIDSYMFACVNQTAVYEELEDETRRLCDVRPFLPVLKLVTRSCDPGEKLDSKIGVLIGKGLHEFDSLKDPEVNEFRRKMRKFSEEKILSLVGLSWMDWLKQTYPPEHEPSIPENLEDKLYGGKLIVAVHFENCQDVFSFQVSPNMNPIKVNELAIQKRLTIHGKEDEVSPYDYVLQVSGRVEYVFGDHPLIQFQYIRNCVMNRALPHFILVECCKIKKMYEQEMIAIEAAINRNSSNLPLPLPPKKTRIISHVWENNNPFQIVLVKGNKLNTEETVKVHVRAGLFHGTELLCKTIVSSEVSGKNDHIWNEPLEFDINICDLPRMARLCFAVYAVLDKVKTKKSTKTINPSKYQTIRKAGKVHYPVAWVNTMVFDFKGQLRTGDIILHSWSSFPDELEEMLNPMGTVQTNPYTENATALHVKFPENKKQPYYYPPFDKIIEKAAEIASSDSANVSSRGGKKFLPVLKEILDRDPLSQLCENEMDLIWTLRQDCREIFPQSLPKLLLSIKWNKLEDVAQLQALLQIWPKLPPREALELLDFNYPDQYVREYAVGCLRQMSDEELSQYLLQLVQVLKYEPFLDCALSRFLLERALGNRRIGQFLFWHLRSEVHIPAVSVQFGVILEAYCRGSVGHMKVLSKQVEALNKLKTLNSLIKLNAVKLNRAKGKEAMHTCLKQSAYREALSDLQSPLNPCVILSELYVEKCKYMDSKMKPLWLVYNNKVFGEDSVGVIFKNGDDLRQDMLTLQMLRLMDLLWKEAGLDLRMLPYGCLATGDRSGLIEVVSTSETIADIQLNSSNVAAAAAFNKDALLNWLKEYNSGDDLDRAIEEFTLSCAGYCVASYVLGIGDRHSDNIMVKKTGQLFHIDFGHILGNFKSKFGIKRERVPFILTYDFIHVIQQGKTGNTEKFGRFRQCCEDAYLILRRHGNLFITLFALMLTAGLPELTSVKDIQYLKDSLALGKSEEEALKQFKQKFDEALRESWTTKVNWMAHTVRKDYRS
T2 sequence (P27986 whole entry partner): as the sequence (P27986 whole entry partner) above
T3 sequence (P48736 whole entry): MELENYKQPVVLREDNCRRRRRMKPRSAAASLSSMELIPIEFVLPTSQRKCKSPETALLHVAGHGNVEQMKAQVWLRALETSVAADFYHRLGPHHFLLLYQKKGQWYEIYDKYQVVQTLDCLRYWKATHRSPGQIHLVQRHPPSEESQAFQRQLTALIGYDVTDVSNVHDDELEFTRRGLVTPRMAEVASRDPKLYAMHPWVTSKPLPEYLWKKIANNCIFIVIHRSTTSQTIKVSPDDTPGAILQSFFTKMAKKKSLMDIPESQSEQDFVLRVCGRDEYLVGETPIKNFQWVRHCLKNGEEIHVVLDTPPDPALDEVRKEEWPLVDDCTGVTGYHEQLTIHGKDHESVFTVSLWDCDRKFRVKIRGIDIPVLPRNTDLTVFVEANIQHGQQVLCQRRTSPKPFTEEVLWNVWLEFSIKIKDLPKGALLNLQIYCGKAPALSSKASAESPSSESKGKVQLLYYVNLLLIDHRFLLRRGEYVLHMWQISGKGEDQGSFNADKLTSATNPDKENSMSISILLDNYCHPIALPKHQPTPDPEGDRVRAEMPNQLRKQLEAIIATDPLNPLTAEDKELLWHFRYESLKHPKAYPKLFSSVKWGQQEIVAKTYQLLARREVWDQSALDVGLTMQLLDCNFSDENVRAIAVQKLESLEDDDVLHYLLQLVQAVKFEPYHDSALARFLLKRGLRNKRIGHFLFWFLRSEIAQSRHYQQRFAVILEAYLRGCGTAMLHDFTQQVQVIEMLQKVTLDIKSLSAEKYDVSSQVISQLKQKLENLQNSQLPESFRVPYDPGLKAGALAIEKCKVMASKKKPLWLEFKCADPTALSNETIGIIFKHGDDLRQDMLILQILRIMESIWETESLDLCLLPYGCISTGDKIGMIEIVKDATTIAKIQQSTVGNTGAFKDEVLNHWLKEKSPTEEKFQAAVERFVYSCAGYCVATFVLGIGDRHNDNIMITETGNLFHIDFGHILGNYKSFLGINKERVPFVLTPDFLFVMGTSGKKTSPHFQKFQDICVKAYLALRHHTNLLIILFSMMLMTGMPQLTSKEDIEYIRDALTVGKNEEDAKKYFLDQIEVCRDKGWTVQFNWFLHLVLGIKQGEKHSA
T4 sequence (O00329 whole entry): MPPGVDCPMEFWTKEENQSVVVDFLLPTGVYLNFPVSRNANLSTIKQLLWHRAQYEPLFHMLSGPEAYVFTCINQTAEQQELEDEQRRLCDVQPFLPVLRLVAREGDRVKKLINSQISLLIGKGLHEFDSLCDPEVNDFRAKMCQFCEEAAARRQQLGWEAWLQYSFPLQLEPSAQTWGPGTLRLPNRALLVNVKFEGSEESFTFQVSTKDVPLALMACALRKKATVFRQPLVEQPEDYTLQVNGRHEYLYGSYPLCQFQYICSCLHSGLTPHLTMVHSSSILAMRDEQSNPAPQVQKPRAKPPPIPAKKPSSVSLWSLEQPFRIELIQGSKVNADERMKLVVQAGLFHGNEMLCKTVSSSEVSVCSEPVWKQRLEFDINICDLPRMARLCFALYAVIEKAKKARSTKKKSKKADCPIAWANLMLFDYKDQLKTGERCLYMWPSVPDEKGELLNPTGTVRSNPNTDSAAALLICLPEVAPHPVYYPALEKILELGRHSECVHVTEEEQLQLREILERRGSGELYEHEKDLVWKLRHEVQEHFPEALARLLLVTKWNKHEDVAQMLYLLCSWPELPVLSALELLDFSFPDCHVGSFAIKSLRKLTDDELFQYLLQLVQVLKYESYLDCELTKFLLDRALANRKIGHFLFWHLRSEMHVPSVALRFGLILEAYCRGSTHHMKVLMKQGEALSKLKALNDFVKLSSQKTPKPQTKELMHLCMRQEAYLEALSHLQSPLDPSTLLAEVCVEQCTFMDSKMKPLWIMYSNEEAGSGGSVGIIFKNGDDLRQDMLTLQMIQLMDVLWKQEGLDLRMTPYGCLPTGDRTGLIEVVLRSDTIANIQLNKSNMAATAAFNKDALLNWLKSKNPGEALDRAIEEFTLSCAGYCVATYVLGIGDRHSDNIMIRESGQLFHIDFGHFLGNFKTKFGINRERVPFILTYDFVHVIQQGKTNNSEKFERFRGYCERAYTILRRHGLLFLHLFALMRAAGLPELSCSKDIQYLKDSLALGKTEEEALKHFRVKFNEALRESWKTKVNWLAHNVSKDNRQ
T4 sequence (P27986 whole entry partner): as the sequence (P27986 whole entry partner) above

On to `Nc1nc2cc(-c3ccc4ncc(C(=O)NC5CC5)n4c3)ccc2o1` [Compound 187], for which the IC50 in assay [1] is less than 0.1 µM; in assay [2], less than 10 µM; in assay [3], less than 0.1 µM; in assay [4] it was less than 1 µM.

For the compound `Nc1nc2cc(-c3ccc4ncnc(NC5CCOCC5)c4c3)ccc2o1` [Compound 24], the IC50 in assay [1] is less than 0.1 µM; in assay [2], less than 1 µM; in assay [3], less than 0.1 µM; in assay [4], less than 0.1 µM.

Consider `O=C(c1cnc2ccc(-c3cccc(NS(=O)(=O)c4ccc(F)cc4F)c3)cn12)N1CCOCC1` [Compound 454], for which the IC50 in assay [1] was less than 10 µM; in assay [2], greater than 10 µM; in assay [3], less than 10 µM; in assay [4], less than 10 µM.

Take `CC(=O)N1CCN(c2cnc3ccc(-c4ccc5oc(N)nc5c4)cc3n2)CC1` [Compound 85]: the IC50 in assay [1], in assay [2], in assay [3] and in assay [4] was less than 0.1 µM in each case.

`Nc1nc2cc(-c3ccc4ncc(C(=O)N5CCNCC5)n4c3)ccc2o1` [Compound 111]: the IC50 in assay [1] was less than 0.1 µM; in assay [2] it was less than 10 µM; in assay [3] it was greater than 10 µM; in assay [4] it was greater than 10 µM.

On to `CS(=O)(=O)CCN1CCN(c2cnc3ccc(-c4ccc5oc(N)nc5c4)cc3n2)CC1` [Compound 90], for which the IC50 in assay [1] was less than 0.1 µM; in assay [2], less than 1 µM; in assay [3], less than 1 µM; in assay [4] it was less than 10 µM.

Regarding `Nc1nc2cc(-c3ccc4ncc(N5CC(N6CCCC6)C5)nc4c3)ccc2o1` [Compound 314], the IC50 in assay [1] is less than 1 µM; in assay [2], less than 10 µM; in assay [3], less than 10 µM; in assay [4] it was less than 10 µM.

For `Nc1nc2cc(-c3ccc4ncc(N5CC(N)C5)nc4c3)ccc2o1` [Compound 367], the IC50 in assay [1] is less than 1 µM; in assay [2], less than 1 µM; in assay [3], less than 1 µM; in assay [4] it was less than 10 µM.

Take `O=C(c1cnc2ccc(-c3cnc(Cl)c4[nH]ncc34)cn12)N1CCOCC1` [Compound 516]: the concentration for half-maximal inhibition (IC50) in assay [1] is less than 1 µM; in assay [2], greater than 10 µM; in assay [3], greater than 10 µM; in assay [4] it was greater than 10 µM.

Turning to `CC(=O)Nc1nc2cc(-c3cc(F)c4oc(N)nc4c3)ccc2s1` [Compound 435], the IC50 in assay [1] was less than 10 µM; in assay [2], less than 10 µM; in assay [3] it was less than 0.1 µM; in assay [4], greater than 10 µM.

Consider `Nc1nc2cc(-c3ccc4ncc(C(=O)N5CCN(CCO)CC5)n4c3)ccc2o1` [Compound 148], for which the IC50 in assay [1] was less than 0.1 µM; in assay [2] it was greater than 10 µM; in assay [3], less than 10 µM; in assay [4], greater than 10 µM.

For the compound `Nc1nc2cc(-c3ccc4ncc(NC5CCOCC5)nc4c3)ccc2o1` [Compound 96], the IC50 is less than 0.1 µM in assay [1], less than 10 µM in assay [2], less than 0.1 µM in assay [3] and less than 1 µM in assay [4].

For `Nc1nc2cc(-c3ccc4ncc(-c5ccc(N6CCOCC6)nc5)nc4c3)ccc2o1` [Compound 167], the IC50 in assay [1] is less than 10 µM; in assay [2], greater than 10 µM; in assay [3] it was greater than 10 µM; in assay [4], greater than 10 µM.

For `COCCn1cnc2ccc(-c3ccc4oc(N)nc4c3)cc2c1=O` [Compound 272], the IC50 in assay [1] was less than 1 µM; in assay [2], less than 10 µM; in assay [3], less than 10 µM; in assay [4] it was greater than 10 µM.

For `CN1CCN(S(=O)(=O)c2cnc3ccc(-c4ccc5oc(N)nc5c4)cn23)CC1` [Compound 110], the IC50 in assay [1], in assay [2], in assay [3] and in assay [4] was greater than 10 µM throughout.

Consider `CCN(CC)CCCNC(=O)c1cnc2ccc(-c3ccc4oc(N)nc4c3)cn12` [Compound 302], for which the IC50 in assay [1] is less than 1 µM; in assay [2] it was less than 10 µM; in assay [3], less than 10 µM; in assay [4], less than 0.1 µM.
